Where a name gives a salt, the structure may show the parent alone. Read-outs that look alike come from different tables or passages of the source.
How the values were obtained:
[1] = molecular target: recombinant human arginase 1 (Homo sapiens, UniProt P05089); assay: Arginase inhibitory activity test, enzymatic assay based on urea measurement (Arg 1);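 also: enzyme incubated with L-arginine substrate and compound at 37 °C for 120 min, urea product detected colorimetrically by absorbance at 450 nm, background from wells lacking enzyme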
Experimental: (§1) An enzymatic assay with recombinant human arginases 1 or 2 was used to measure inhibitory activity of the compounds. The assay is based on urea measurement, which is a product of L-arginine enzymatic degradation.
(§2) Briefly, arginase and the substrate solution containing L-arginine were incubated in the absence or presence of varying concentrations of compounds at 37° C. for 120 min. For the background correction, only the substrate solution was added without arginase. The urea detection reagent from QuantiChrome™ Urea assay kit (BioAssay Systems, CA) was added to develop the color product. After 60 min at room temperature, the absorbance was measured at 450 nm with CLARIOstar (BMG LABTECH). Urea was used as the standard.

[2] = molecular target: T1, recombinant human arginase 2 (Homo sapiens, UniProt P78540); assay: Arginase inhibitory activity test, enzymatic assay based on urea measurement (Arg 2); format: biochemical; details: 37° C. for 120 min, urea detection, read-out: Arg 2 enzymatic potency
T1 sequence (P78540 23-354): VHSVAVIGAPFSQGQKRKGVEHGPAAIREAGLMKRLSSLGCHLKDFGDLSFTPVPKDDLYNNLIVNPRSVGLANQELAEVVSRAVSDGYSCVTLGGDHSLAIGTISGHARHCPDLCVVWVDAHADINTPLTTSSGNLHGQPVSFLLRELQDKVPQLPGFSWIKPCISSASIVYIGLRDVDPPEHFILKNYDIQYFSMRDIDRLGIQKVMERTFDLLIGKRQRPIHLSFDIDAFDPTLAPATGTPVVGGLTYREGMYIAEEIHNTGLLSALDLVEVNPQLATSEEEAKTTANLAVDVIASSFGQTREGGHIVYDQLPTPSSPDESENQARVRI
Source text: Urea was used as the standard.

[3] = molecular target: T2, recombinant human arginase 1 (Homo sapiens, UniProt P05089); assay: Arginase inhibitory activity test, enzymatic assay based on urea measurement (Arg 1); remark: listed apart in the source;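 also: enzyme incubated with L-arginine substrate and compound at 37 °C for 120 min, urea product detected colorimetrically by absorbance at 450 nm, background from wells lacking enzyme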
T2 sequence (P05089 1-322): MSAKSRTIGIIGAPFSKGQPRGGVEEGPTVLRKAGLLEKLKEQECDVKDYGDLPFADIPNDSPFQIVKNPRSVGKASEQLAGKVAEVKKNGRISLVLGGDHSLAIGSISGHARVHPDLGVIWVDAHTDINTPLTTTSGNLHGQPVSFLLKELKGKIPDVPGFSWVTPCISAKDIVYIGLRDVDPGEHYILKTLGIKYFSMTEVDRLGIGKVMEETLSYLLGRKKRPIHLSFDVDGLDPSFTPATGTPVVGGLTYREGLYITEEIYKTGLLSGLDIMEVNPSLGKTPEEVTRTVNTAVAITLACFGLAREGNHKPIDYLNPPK
Experimental: as §1, §2

| IC50 [1] [nM] | IC50 [2] [nM] | IC50 [3] [nM] | Compound | IC50 ([3]; read-out: Arg 1 enzymatic potency, recombinant human arginase 1, 37° C. for 120 min, urea detection) [nM] |
| --- | --- | --- | --- | --- |
| 100 to 1000 | – | – | CN(C[C@H](N)C(F)F)S(=O)(=O)N1C[C@H](CCCB(O)O)[C@](N)(C(=O)O)C1 (racemic) | – |
| 100 to 1000 | – | – | N[C@@H](CNS(=O)(=O)N1C[C@H](CCCB(O)O)[C@](N)(C(=O)O)C1)C(F)F (racemic) | – |
| – | 100 to 1000 | < 100 | N[C@@]1(C(=O)O)CN(S(N)(=O)=O)C[C@@H]1CCCB(O)O (racemic) [Example 1, (rac)trans-3-amino-4-(3-boronopropyl)-1-sulfamoylpyrrolidine-3-carboxylic acid, (1:1) 2,2,2-trifluoroacetic acid salt] | – |
| – | 100 to 1000 | 100 to 1000 | Nc1c(N2C[C@H](CCCB(O)O)[C@](N)(C(=O)O)C2)c(=O)c1=O (racemic) [Example 3, (rac)trans-3-amino-1-(2-amino-3,4-dioxocyclobut-1-en-1-yl)-4-(3-boronopropyl)pyrrolidine-3-carboxylic acid, (1:1) 2,2,2-trifluoroacetic acid salt] | – |
| – | 100 to 1000 | 100 to 1000 | N[C@@]1(C(=O)O)CN(S(=O)(=O)Nc2ccccn2)C[C@@H]1CCCB(O)O (racemic) [Example 4, (rac)trans-3-amino-4-(3-boronopropyl)-1-(N-(pyridin-2-yl)sulfamoyl)pyrrolidine-3-carboxylic acid compound with 2,2,2-trifluoroacetic acid (1:2)] | – |
| – | < 100 | < 100 | NCCNS(=O)(=O)N1C[C@H](CCCB(O)O)[C@](N)(C(=O)O)C1 (racemic) [Example 5, (rac)trans-3-amino-1-(N-(2-aminoethyl)sulfamoyl)-4-(3-boronopropyl)pyrrolidine-3-carboxylic acid compound with 2,2,2-trifluoroacetic acid (1:2)] | – |
| – | 100 to 1000 | 100 to 1000 | N[C@@]1(C(=O)O)CN(S(=O)(=O)Nc2cc[nH]n2)C[C@@H]1CCCB(O)O (racemic) [Example 6, (rac)trans-1-(N-(1H-pyrazol-3-yl)sulfamoyl)-3-amino-4-(3-boronopropyl)pyrrolidine-3-carboxylic acid, (1:2) 2,2,2-trifluoroacetic acid salt] | – |
| – | < 100 | < 100 | CC(C)(N)CNS(=O)(=O)N1C[C@H](CCCB(O)O)[C@](N)(C(=O)O)C1 (racemic) [Example 25, (rac)-trans-3-amino-1-(N-(2-amino-2-methylpropyl)sulfamoyl)-4-(3-boronopropyl)pyrrolidine-3-carboxylic acid, (1:2) 2,2,2-trifluoroacetic acid salt] | – |
| – | < 100 | < 100 | CC(C)(CN)NS(=O)(=O)N1C[C@H](CCCB(O)O)[C@](N)(C(=O)O)C1 (racemic) [Example 26, (rac)-trans-3-amino-1-(N-(1-amino-2-methylpropan-2-yl)sulfamoyl)-4-(3-boronopropyl)pyrrolidine-3-carboxylic acid, (1:2) 2,2,2-trifluoroacetic acid salt] | – |
| – | 100 to 1000 | < 100 | N[C@@]1(C(=O)O)CN(S(=O)(=O)N2CCNCC2)C[C@@H]1CCCB(O)O (racemic) [Example 30, (rac)-trans-3-amino-4-(3-boronopropyl)-1-(piperazin-1-ylsulfonyl)pyrrolidine-3-carboxylic acid, 2,2,2-trifluoroacetic acid salt (1:2)] | – |
| – | 100 to 1000 | < 100 | NCC1(NS(=O)(=O)N2C[C@H](CCCB(O)O)[C@](N)(C(=O)O)C2)COC1 (racemic) [Example 31] | – |
| – | 100 to 1000 | 100 to 1000 | N=C(N)N1C[C@H](CCCB(O)O)[C@](N)(C(=O)O)C1 (racemic) [Example 37, rac-(trans)-3-amino-4-(3-boronopropyl)-1-carbamimidoylpyrrolidine-3-carboxylic acid, 2,2,2-trifluoroacetic acid salt (1:2)] | – |
| – | – | < 100 | N[C@@]1(C(=O)O)CN(S(=O)(=O)N(CC2CC2)[C@H]2CCNC2)C[C@@H]1CCCB(O)O [Example 71, (3R,4S)-3-amino-4-(3-boronopropyl)-1-(N-(cyclopropylmethyl)-N-((S)-pyrrolidin-3-yl)sulfamoyl)pyrrolidine-3-carboxylic acid, 2,2,2-trifluoroacetic acid salt (1:2)] | – |
| – | – | < 100 | N[C@@]1(C(=O)O)CN(S(=O)(=O)N(CC2CC2)[C@H]2CCCNC2)C[C@@H]1CCCB(O)O [Example 72, (3R,4S)-3-amino-4-(3-boronopropyl)-1-(N-(cyclopropylmethyl)-N-((S)-piperidin-3-yl)sulfamoyl)pyrrolidine-3-carboxylic acid, 2,2,2-trifluoroacetic acid salt (1:2)] | – |
| – | – | < 100 | N[C@@]1(C(=O)O)CN(S(=O)(=O)N(CC2CC2)[C@@H]2CCCNC2)C[C@@H]1CCCB(O)O [Example 73, (3R,4S)-3-amino-4-(3-boronopropyl)-1-(N-(cyclopropylmethyl)-N-((R)-piperidin-3-yl)sulfamoyl)pyrrolidine-3-carboxylic acid, 2,2,2-trifluoroacetic acid salt (1:2)] | – |
| – | – | < 100 | N[C@@]1(C(=O)O)CN(S(=O)(=O)N(CC2CC2)C2CCNCC2)C[C@@H]1CCCB(O)O [Example 74, (3R,4S)-3-amino-4-(3-boronopropyl)-1-(N-(cyclopropylmethyl)-N-(piperidin-4-yl)sulfamoyl)pyrrolidine-3-carboxylic acid, 2,2,2-trifluoroacetic acid salt (1:2)] | – |
| – | – | < 100 | CCN(C1CNC1)S(=O)(=O)N1C[C@H](CCCB2O[C@H]3C[C@H]4C[C@H](C4(C)C)[C@@]3(C)O2)[C@](N)(C(=O)O)C1 [Example 75, (3R,4S)-3-amino-1-(N-(azetidin-3-yl)-N-ethylsulfamoyl)-4-(3-((3aR,4R,6R,7aS)-3a,5,5-trimethylhexahydro-4,6-methanobenzo[d][1,3,2]dioxaborol-2-yl)propyl)pyrrolidine-3-carboxylic acid] | – |
| – | – | – | (rac)trans-3-amino-1-(N-((S)-2-aminopropyl)sulfamoyl)-4-(3-boronopropyl)pyrrolidine-3-carboxylic acid (diastereomers), 2,2,2-trifluoroacetic acid salt (1:2) [Example 18] | 100 to 1000 |

Reference: patent US20220251116A1, “ALKYLBORONIC ACIDS AS ARGINASE INHIBITORS” (Guangdong Newopp Biopharmaceuticals Co., Ltd., priority 2019, published 2022)
